Reference: US5281603A, “Angiotensin II receptor blocking 2,3,6 substituted quinazolinones” (American Cyanamid Company, priority 1993, dated 1994)

Biological target: T1, Angiotensin II Receptor (Bos taurus, UniProt P25104)
T1 construct: The brownish tissue forming the adrenal cortex is scraped off and finely minced with scissors before homogenization; from tissue; host or cells: beef adrenal cortex, microsomal membranes (100,000×g pellet)
T1 sequence (P25104 1-359): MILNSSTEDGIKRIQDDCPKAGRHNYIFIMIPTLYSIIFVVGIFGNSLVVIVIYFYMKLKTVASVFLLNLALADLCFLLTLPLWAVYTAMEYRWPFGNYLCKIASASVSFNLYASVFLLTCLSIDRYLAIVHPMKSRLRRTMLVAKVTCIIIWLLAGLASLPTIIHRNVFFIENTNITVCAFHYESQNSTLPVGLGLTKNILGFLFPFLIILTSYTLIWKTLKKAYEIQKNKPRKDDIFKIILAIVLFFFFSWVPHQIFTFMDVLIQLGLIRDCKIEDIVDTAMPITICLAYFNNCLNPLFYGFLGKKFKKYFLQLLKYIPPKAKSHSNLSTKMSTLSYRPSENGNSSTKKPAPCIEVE
Assay: Angiotensin II Receptor Binding: displacement of [^125 I](Sar^1,Ile^8)AngII from beef adrenal cortex membranes
Design: species or system beef (bovine)
Details: [^125 I](Sar^1,Ile^8)AngII, beef adrenal membranes, 60 min, room temperature
From the text: Beef adrenals are obtained from a local slaughter house (Maxwell-Cohen). [^125 I](Sar^1,Ile^8)AngII, S.A. 2200 Ci/mmole, is purchased from Dupont (NEN®, Boston, Mass.). All unlabeled AngII analogs, Dimethylsulfoxide (DMSO), nucleotides, bovine serum albumin (BSA) are purchased from Sigma Chemical Co., St. Louis, Mo. U.S.A.
Approximately sixteen (16) to twenty (20) beef adrenal glands are processed as follows: fresh adrenal glands received on crushed ice are cleaned of fatty tissues and the tough membranes encapsulating the glands are removed and discarded. The brownish tissue forming the adrenal cortex is scraped off and finely minced with scissors before homogenization. Care is taken to avoid contamination with medullary tissue during dissection. The scraped cortices are suspended in twenty volumes of an ice-cold buffer medium consisting of 10 mM Tris.HCl (pH 7.4 at 22° C.) and containing 1.0 mM EDTA and 0.2M sucrose. Unless otherwise indicated, all subsequent operations are done at 4° C. […] The homogenate is centrifuged first at low speed (3,000×g) for 10 min. […] This P2 pellet is discarded and the liquid phase is carefully decanted off in clean centrifuge tubes and recentrifuged at high speed (100,000×g) for 60 min. The translucent final pellet is harvested and combined in a small volume (20-50.0 ml) of 50.0 mM Tris.HCl buffer, pH 7.2. […] The pelleted membrane is reconstituted in 50.0 mM Tris.HCl buffer containing 0.1 mM of phenylmethylsulfonyl fluoride (PMSF) to give approximately a protein concentration of 2.5 mg per ml of tissue suspension. The membrane preparation is finally aliquoted in 1.0 ml volumes and stored at -70° C. until use in the binding assays. […]
The wells are left undisturbed for 60 min. at room temperature. […] The filters are removed from the filter grid and counted in a Parkard® Cobra Gamma Counter for 1 min. […] The binding data are analyzed by the non-linear interactive "LUNDON-1" program (LUNDON SOFTWARE Inc., Cleveland, Ohio U.S.A.).

| IC50 [nM] | Compound |
| --- | --- |
| 180 | CCCCc1nc2ccc(C3=NN[C@H]4C(=O)N(C)C(=O)[C@@H]34)cc2c(=O)n1Cc1ccc(-c2ccccc2-c2nnn[nH]2)cc1 (relative stereo) [Example 7] |
| 880 | CCCCc1nc2ccc([C@@]3(C)NN[C@@H]4C(=O)N(C)C(=O)[C@@H]43)cc2c(=O)n1Cc1ccc(-c2ccccc2-c2nnn[nH]2)cc1 (relative stereo) [Example 10, (3-alpha,3aalpha,6aalpha)-3-[2-butyl-3,4-dihydro-4-oxo-3-[[2'-(1H-tetrazol-5-yl)-[1,1'-biphenyl]-4-yl]methyl]-6-quinazolinyl]-2,3,3a,6a-tetrahydro-3,5-dimethyl-pyrrolo[3,4-c]pyrazole-4,6(1H,5H)-dione] |
